What was measured:
[1] = Rubbing a portion between thumb and finger (hygroscopicity); type: physicochemical; conditions: rubbed between the thumb and finger; moisture from thumb, finger and surrounding air
From the text: Sample 1 was further compared to Sample 2 by rubbing a portion of each between the thumb and finger.

[2] = Shaking the powder in a plastic bag (electrostatic behaviour); type: physicochemical; conditions: shaken in a plastic bag
Procedure: A 10:1 mixture of copper glycinate to terra alba (CaSO4) [Sample 1] was prepared and shaken together in a plastic bag. Next, a pure copper glycinate without the presence of terra alba [Sample 2] was also prepared and shaken in a plastic bag.

Particle size = type: physicochemical
From the text: The particle size found in Sample 1 and Sample 2 was about 70 mesh.

[3] = Addition to stimulated gastric solution (stability in an acid environment); type: physicochemical; conditions: added to a stimulated gastric solution
From the text: Sample 1 was similarly added to a stimulated gastric solution.

[4] = zero ionic strength; reaction M^2+ + (Gly)^- <-> M(Gly)^+; cited from earlier work

Compound | hygroscopicity: balling up with moisture [1] | electrostatic behaviour: product sticking to the walls of the bag [2] | particle size (Particle size) | color change in stimulated gastric solution (stability in acid environment) [3] | log of the equilibrium constant [4]
NCC(=O)[O-].NCC(=O)[O-].[Cu+2] [Sample 2, copper glycinate] | quickly balled up with moisture | a blue haze of product stuck the walls of the bag | about 70 mesh | caused the product to change color | –
copper | – | – | – | – | 8.56

From patent US6458981B1, “Composition and method for preparing amino acid chelate hydroxides free of interfering ions” (Albion International, Inc., priority 2000, dated 2002)
